Results as given in patent US20060171988A1, “Method of treatment using foams as artificial lymph nodes” (priority 2005, published 2006).
“Also recorded” adds a separate entry of the source.

What was measured:
[1] = system: ovalbumin-transfected E.G7 mouse tumor cells; assay: 51Cr release assay (CTL activity) with T cells from immunized mice, E.G7 targets; type: in vivo
Procedure: (§1) Immunization: On day 9 after surgery, wounds had generally healed and healthy mice were used for immunization with 30 μg peptide per mouse. Depending on the experiment, CpG deoxyoligonucleotide 1668 (5 -100 pmole/mouse), mouse GM-CSF (10^3 units/mouse) and Titermax classic were used as adjuvants. Generally, injection volume was adjusted to 200 μl per mouse with sterile PBS. When applying Titermax classic, all other injection components were mixed and then added in small portions to an equal volume of Titermax classic. After each addition, the vial was rigorously mixed to obtain a white, semi-fluid water-in-oil suspension. Injection was either performed subcutaneously into the nape of the neck, the base of tail and the footpad, using a volume ratio of 3:1:1, respectively, or directly into the centre of the right foam implantate.
(§2) T-cell culture and ^51Cr release assay: On day 9 after immunization, mice were sacrificed and 2*10^7 splenocytes were stimulated in vitro for 5 days using 10^7 irradiated (30 Gy) splenocytes from untreated C57BL/6 mice as feeder cells and 5 ng/ml peptide. Cytotoxic T lymphocyte (CTL) activity was measured in a standard ^51Cr release assay (Brunner et al., 1968). Briefly, stimulated cells were harvested, counted and plated out in a series of […] in a round-bottom 96-well plate. 10^6 EL-4 cells (C57BL/6-derived T cell lymphoma; ATCC no. TIB-39) were loaded with 50 pmole peptide and [^51Cr] Na2CrO4-labeled at 37° C. for 30 min. After intense washing with cell culture medium, 10^4 of these cells were added to each well of the 96-well plate as targets. ^51Cr release was measured after 4 h incubation at 37° C./5% (v/v) CO2.

EL-4 cells = assay: 51Cr release assay (CTL activity) with T cells from immunized mice, EL-4 targets; type: in vivo, mouse
Procedure: as §1, with “Injection was either performed subcutaneously into the nape of the neck, the base of tail and the footpad, using a volume ratio of 3:1:1, respectively, or directly into the centre of the right foam implantate.” left out
as §2, with “10^6 EL-4 cells (C57BL/6-derived T cell lymphoma; ATCC no. TIB-39) were loaded with 50 pmole peptide and [^51Cr] Na2CrO4-labeled at 37° C. for 30 min.” left out

[2] = s.c. injection into the nape of the neck, peptide alone, T cells from spleen or lymph nodes of immunized C57BL/6 mice

Sequence | maximum lysis above unspecific background ([1]; peptide injected into s.c. implanted PVA foams, T cells from spleen) | lysis of ovalbumin-transfected E.G7 cells by T cells ([1]; peptide injected into s.c. implanted PVA foams, T cells from spleen or lymph node) | immune response / recognition of E.G7 target cells by T cells [1, 2] | recognition of untransfected EL-4 target cells by T cells (EL-4 cells; [2]) | maximum lysis above unspecific background (EL-4 cells; peptide injected into s.c. implanted PVA foams, T cells from axillary and cervical lymph nodes, independent second experiment)
SIINFEKL (Ovalbumin-derived SIINFEKL peptide (amino acid 257-264)) [peptide derived from chicken ovalbumin (amino acid 257-264), model ligand of mouse MHC class I allele H2-Kb] | approximately 45% | able to lyse | Neither ovalbumin-transfected E.G7 mouse tumor cells of the H2-b haplotype, nor untransfected H2-b positive EL-4 mouse tumor cells are recognized; also recorded: did not lead to detectable immune responses | nor untransfected H2-b positive EL-4 mouse tumor cells were recognized | 
ASNENMETM (peptide ASNENMETM derived from influenza nucleoprotein (amino acid 366-374)) [peptide derived from influenza nucleoprotein (amino acid 366-374)] |  |  |  |  | 37%
